Laboratory results reported in the supplement of paper PMC10702517.
± gives the standard deviation.

Legend:
[1] = chemical recovery from spiked human plasma; higher = better extraction; details: pooled human plasma
[2] = chemical recovery by SPE of plasma after PDMS sampling; higher = better extraction; details: pooled human plasma, extraction method: HLB SPE of plasma after PES
[3] = extraction method: PES+SPE (3 d PDMS equilibration then HLB SPE)
[4] = extraction method: SPE only (HLB 96-well)
[5] = extraction method: SPE only (HLB 96-well), PES comparison experiment
[6] = extraction method: solvent precipitation (ACN + hexane)
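For chemical recovery by SPE of plasma after PDMS sampling in this document: over 400 spiked chemicals quantified by LC-HRMS or GC-HRMS via internal standard calibration, recovery relative to spike mix added to unspiked plasma extract to correct matrix effects.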

SMILES	chemical recovery [1, 3] [%]	chemical recovery [1, 4] [%]	chemical recovery [1, 5] [%]	chemical recovery by SPE of plasma ([2]; equilibration time (d): 1) [%]	chemical recovery by SPE of plasma ([2]; equilibration time (d): 3) [%]	chemical recovery by SPE of plasma ([2]; equilibration time (d): 6) [%]	chemical recovery [1, 6] [%]
CCc1ccc(CCOc2ccc(CC3SC(=O)NC3=O)cc2)nc1 (stereo unspecified) [Pioglitazone]	42.9 ± 3.5	48.6 ± 3.3	42.9 ± 6	45.8 ± 9.5	49.1 ± 3	47 ± 6.1	–
C[C@]12C=CC(=O)C=C1CC[C@@H]1[C@@H]2[C@@H](O)C[C@@]2(C)[C@H]1CC[C@]2(O)C(=O)CO [Prednisolone]	–	–	61.1 ± 7.2	–	48.4 ± 2.3	44.5 ± 1.3	–
CC(CN1c2ccccc2Sc2ccccc21)N(C)C (stereo unspecified) [Promethazin]	0.204 ± 0.12	55.2 ± 14	43.8 ± 7.1	0.16 ± 0.11	0.172 ± 0.13	0.00932 ± 0.01	74.2 ± 4.5
CCCOc1nn(C(=O)NS(=O)(=O)c2ccccc2C(=O)OC)c(=O)n1C [Propoxycarbazone]	39.2 ± 4.4	31.4 ± 2.8	43.2 ± 6.2	27.1 ± 5.6	32 ± 2.5	29.4 ± 1.4	75.6 ± 5.4
COc1nc(C)nc(NC(=O)NS(=O)(=O)c2ccccc2CCC(F)(F)F)n1 [Prosulfuron]	44.3 ± 3.7	37.9 ± 4.5	42.7 ± 6.3	48.5 ± 11	50.6 ± 4.8	45.3 ± 5.2	75.5 ± 0.94
Cc1cnc2c(C(=O)O)c(Cl)ccc2c1 [Quinmerac]	43.6 ± 2.5	40.8 ± 3.5	52.2 ± 6.4	54.5 ± 9.6	61.1 ± 6.2	56.5 ± 1.8	65.8 ± 4.1
O=C(c1ccc(OCCN2CCCCC2)cc1)c1c(-c2ccc(O)cc2)sc2cc(O)ccc12 [Raloxifene]	–	–	47.4 ± 8.5	41.3 ± 2.1	46.1 ± 2.4	39.8 ± 2.8	63.5 ± 3.5
CC[C@H]1OC(=O)[C@H](C)[C@@H](O[C@H]2C[C@@](C)(OC)[C@@H](O)[C@H](C)O2)[C@H](C)[C@@H](O[C@@H]2O[C@H](C)C[C@H](N(C)C)[C@H]2O)[C@](C)(O)C[C@@H](C)/C(=N\OCOCCOC)[C@H](C)[C@@H](O)[C@]1(C)O [Roxithromycin]	–	–	36.2 ± 4.7	28.8 ± 5.2	29.5 ± 4.3	26.9 ± 3.6	–
O=C(O)c1ccccc1O [Salicylic acid]	–	–	69.7 ± 4.9	61.1 ± 13	78.9 ± 5.7	59.8 ± 3.9	–
CC(C)NCC(O)c1ccc(NS(C)(=O)=O)cc1 (stereo unspecified) [Sotalol]	–	20.9 ± 5.4	–	–	21.5 ± 3.9	30.9 ± 12	75 ± 2.5
CCCN(CC)CC1COC2(CCC(C(C)(C)C)CC2)O1 (stereo unspecified) [Spiroxamine]	0.223 ± 0.025	47.5 ± 0.85	43.7 ± 7.8	0.0924 ± 0.066	0.0829 ± 0.053	0.0434 ± 0.0086	–
COc1cc(NS(=O)(=O)c2ccc(N)cc2)nc(OC)n1 [Sulfadimethoxine]	33.4 ± 3.4	30.1 ± 3.6	45.7 ± 3.6	49 ± 9.9	50.2 ± 5.5	48.5 ± 7.4	–
